From patent publication US20250248402A1, “HERBICIDAL COMPOSITIONS AND METHODS FOR CONTROLLING WEEDS” (UPL Mauritius Limited, priority 2024, published 2025)

Tests used:
[1] = test system: common waterhemp, Non-Target Site Resistant "ACR" Population; experiment: Greenhouse dose-response, effective dose on atrazine-resistant waterhemp; type: in vivo, Amaranthus tuberculatus; settings: 13 days after treatment, visual scale 0-100
[2] = test system: common waterhemp, Non-Target Site Resistant "MCR" Population; experiment: as above; type: in vivo, Amaranthus tuberculatus; settings: 13 days after treatment, visual scale 0-100

CCNc1nc(Cl)nc(NC(C)C)n1 [Atrazine (480 g/L FL), Atrazine]
ED 20 Estimate [1]: 6.782 g ai/ha | ED 80 Estimate [1]: 768.664 g ai/ha | ED 20 Estimate [2]: 20.856 g ai/ha | ED 80 Estimate [2]: 793.705 g ai/ha
